Measured values from ChEMBL document CHEMBL3817747 (J Med Chem, 2016).

Target: Neuraminidase (Influenza A virus, UniProt B4URF0)
Type: cell-based, Influenza A virus (A/WSN/1933(H1N1)), HEK293

Neuraminidase, sequence (B4URF0 whole entry): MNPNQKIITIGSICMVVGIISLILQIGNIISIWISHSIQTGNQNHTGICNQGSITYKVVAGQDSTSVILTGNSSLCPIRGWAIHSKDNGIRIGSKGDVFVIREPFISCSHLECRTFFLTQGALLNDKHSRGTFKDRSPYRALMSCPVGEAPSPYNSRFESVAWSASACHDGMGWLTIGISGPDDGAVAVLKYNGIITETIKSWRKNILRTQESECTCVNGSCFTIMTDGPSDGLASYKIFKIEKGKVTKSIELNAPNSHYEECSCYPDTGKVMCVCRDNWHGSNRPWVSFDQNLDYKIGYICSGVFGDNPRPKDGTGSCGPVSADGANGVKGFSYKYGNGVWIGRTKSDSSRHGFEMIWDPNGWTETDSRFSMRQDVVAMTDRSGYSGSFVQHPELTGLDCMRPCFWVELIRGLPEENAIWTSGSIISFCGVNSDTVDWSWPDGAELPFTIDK

SMILES	IC50 [nM]
CCCCCCOP(=O)(O)[C@@H]1C[C@@H]([C@@H](NC(C)=O)C(CC)CC)[C@H](NC(=N)N)C1	1.6
CCCCCCOP(=O)(O)[C@H]1C[C@@H](NC(=N)N)[C@H]([C@@H](NC(C)=O)C(CC)CC)[C@@H]1O	0.5
CCOP(=O)(O)[C@@H]1C[C@@H]([C@@H](NC(C)=O)C(CC)CC)[C@H](NC(=N)N)C1	1
CCOP(=O)(O)[C@H]1C[C@@H](NC(=N)N)[C@H]([C@@H](NC(C)=O)C(CC)CC)[C@@H]1O	0.9
CCCCCCOP(=O)(O)C1=C[C@@H]([C@@H](NC(C)=O)C(CC)CC)[C@H](NC(=N)N)C1	1.5
CCC(CC)[C@H](NC(C)=O)[C@@H]1C[C@@H](P(=O)(O)O)C[C@H]1NC(=N)N	2.9
